We go through 7 compounds from patent publication US5500442A, “Cyclobut-3-ene-1,2-dione derivatives as smooth muscle relaxants” (American Home Products Corporation, priority 1994, dated 1996).

In one assay the test system is Isolated Rat Bladder. Nature of the assay: Bladder smooth muscle relaxing activity: inhibition of KCl-enhanced contractions in isolated rat bladder strips. The conditions noted are these: 15 mM KCl; for IC50: 37 deg. C, read-out: IC50 of Bladder Contraction; for inhibition at up to 30 µM: at 30 μM, value in parentheses, read-out: % Inhibition of Bladder Contraction at 30 μM. It counts as cell-based, Sprague-Dawley rats. From the text:
Bladder smooth muscle relaxing activity of the compounds of this invention was established in accordance with standard pharmaceutically accepted test procedures in representative compounds as follows:
Sprague-Dawley rats (150-200 g) are rendered unconscious by CO2 asphyxiation and then euthanized by cervical dislocation. The bladder is removed into warm (37 deg. C) physiological salt solution (PSS) of the following composition (mM): NaCl, 118.4; KCl, 4.7; CaCl2, 2.5; […]; NaHCO3, 24.9; KH2 PO4, 1.2; glucose, 11.1; EDTA, 0.023; gassed with […]; pH 7.4. The bladder is opened and then cut into strips 1-2 mm in width and 7-10 mm in length. The strips are subsequently suspended in a 10 ml tissue bath under an initial resting tension of 1.5 g. The strips are held in place by two surgical clips one of which is attached to fixed hook while the other is attached to an isometric force transducer. […] The carbachol is then washed out and the tissue allowed to relax to its resting level of activity. Following 1 further 30 min period of recovery an additional 15 mM KCl are introduced into the tissue bath. This increase in KCl concentration results in a large increase in the amplitude of spontaneous contractions (and initiation of contractions in previously quiescent strips) superimposed upon a small increase in basal tone. Following stabilization of this enhanced level of contractile activity, incremental increases in the concentration of test compound or vehicle are introduced into the tissue bath. Contractile activity is measured for each compound or vehicle concentration during the last rain of a 30 rain challenge.
Isometric force developed by the bladder strips is measured using a […] to elicit 50% inhibition of pre-drug contractile activity (IC50 concentration) is calculated from this concentration-response curve. The maximum percentage inhibition of contractile activity evoked by a test compound is also recorded for concentrations of test compound<or equal to 30 uM.

Assay [1] has as its system Isolated Rat Aortic Tissue. Kind of assay: Aortic smooth muscle relaxing activity: inhibition of KCl-evoked contracture in isolated rat aortic rings. The assay is classed as cell-based, Sprague-Dawley rats. The settings on record: isolated rat thoracic aorta rings, 25 mM KCl; read-out: IC50 of Aorta Contraction. From the text: Aortic smooth muscle relaxing activity of the compounds of this invention was established in accordance with standard pharmaceutically accepted test procedures in representative compounds as follows:
Sprague-Dawley rats (150-200 g) are rendered unconscious by CO2 asphyxiation and then euthanized by cervical dislocation. The thoracic aorta is removed into warm (37 deg. C.) Krebs-Henseleit solution. The aorta is cleaned of fat and loose adventitia and cut into rings 3-4 mm in width. The rings are subsequently suspended between two stainless steel wire tissue holders in a 10 ml tissue bath. One wire tissue holder is attached to fixed hook while the other is attached to an isometric force transducer. Resting tension is set at 1.0 g. The tissues are allowed to recover for a period of 60 mins prior to beginning the experiment. The tissues are challenged with 25 mM KCl to elicit a contracture. The tissue are then washed repeatedly with fresh Krebs-Henseleit solution over a period of 30 rains and allowed to recover to baseline tension. 25 mM KCl is then introduced into the tissue bath to evoke a contracture that is allowed to stabilize for not less than 45 rains. Increasing concentrations of test compound or vehicle are then added to the tissue bath in a cumulative fashion.
Isometric force developed by the aortic rings is measured using force transducer and recorded on a polygraph. The percentage inhibition of contractile force evoked by each concentration of a given test compound is used to generate a concentration-response curve. The concentration required to elicit 50% inhibition of pre-drug contractile activity (IC50 concentration) is calculated from this concentration-response curve. The maximum percentage inhibition of contractile activity evoked by a test compound is also recorded for concentrations of test compound<or equal to 30 uM.

Broadly, the IC50 is the concentration at which inhibition is half-maximal. Take `CC(C)Oc1c(-c2ccc3c(c2)[C@@H](N2Cc4ccccc4C2=O)[C@H](O)C(C)(C)O3)c(=O)c1=O` (relative stereo) [Example 3, 3-[trans-3-hydroxy-2,2-dimethyl-4-(1-oxo-1,3-dihydroisoindol-2-yl)-chroman-6-yl]-4-isopropoxy-cyclobut-3-ene-1,2-dione]: the figures for the IC50 (in the assay with Isolated Rat Bladder; in assay [1]) were 10100 ± 390 nM and 1160 ± 210 nM, respectively.

`CC1(C)Oc2ccc(-c3c(N)c(=O)c3=O)cc2[C@@H](N2Cc3ccccc3C2=O)[C@@H]1O` (relative stereo) [Example 4, 4-Amino-3-[trans-3-hydroxy-2,2-dimethyl-4-(1-oxo-1,3-dihydroisoindol-2-yl)-chroman-6-yl]-cyclobut-3-ene-1,2-dione]: the values for the IC50 (with Isolated Rat Bladder; in assay [1]) were 190 ± 20 nM and 170 ± 40 nM, respectively.

Broadly, the inhibition is the drop in the measured response relative to a control, in per cent. As to `CC1(C)Oc2ccc(-c3c(NCCO)c(=O)c3=O)cc2[C@@H](N2Cc3ccccc3C2=O)[C@@H]1O` (relative stereo) [Example 5, 3-[trans-3-Hydroxy-2,2-dimethyl-4-(1-oxo-1,3-dihydroisoindol-2-yl),-chroman-6-yl]-4-(2-hydroxy-ethylamino)-cyclobut-3-ene-1,2-dione], in the assay on Isolated Rat Bladder, the inhibition at up to 30 µM amounted to 14%.

Consider `CC1(C)Oc2ccc(-c3c(N4CCCC4)c(=O)c3=O)cc2[C@@H](N2Cc3ccccc3C2=O)[C@@H]1O` (relative stereo) [Example 6, 3-[trans-3-Hydroxy-2,2-dimethyl-4-(1-oxo-1,3-dihydroisoindol-2-yl)-chroman-6-yl]-4-pyrrolindin-1-yl-cyclobut-3-ene-1,2-dione], for which the inhibition at up to 30 µM in the assay with Isolated Rat Bladder is 33%.

For the compound `CNc1c(-c2ccc3c(c2)[C@@H](N2Cc4ccccc4C2=O)[C@H](O)C(C)(C)O3)c(=O)c1=O` (relative stereo) [Example 7, 3-[trans-3-Hydroxy-2,2-dimethyl-4-(1-oxo-1,3-dihydroisoindol-2-yl)-chroman-6-yl]-4-methylamino-cyclobut-3-ene-1,2-dione], the IC50 in the assay on Isolated Rat Bladder stood at 1620 nM; in assay [1], 830 ± 240 nM.

For `CC1(C)Oc2ccc(-c3c(O)c(=O)c3=O)cc2[C@@H](N2Cc3ccccc3C2=O)[C@@H]1O` (relative stereo) [Example 8, 3-Hydroxy-4-[trans-3-hydroxy-2,2-dimethyl-4-(1-oxo-1,3-dihydroisoindol-2-yl)-chroman-6-yl]-cyclobut-3-ene-1,2-dione], in the assay on Isolated Rat Bladder, the IC50 worked out at 21900 nM.

`Cc1c(-c2ccc3c(c2)[C@@H](N2Cc4ccccc4C2=O)[C@H](O)C(C)(C)O3)c(=O)c1=O` (relative stereo) [Example 9, 3-[trans-3-Hydroxy-2,2-dimethyl-4-(1-oxo-1,3-dihydro-isoindol-2-yl)-chroman-6-yl]-4-methyl-cyciobut-3-ene-1,2-dione]: the figures for the IC50 (in the assay on Isolated Rat Bladder; in assay [1]) were 110 nM and 15 ± 7 nM, respectively.
